Key:
Experiment in all cases: KINOMEscan
Type in all cases: binding
Conditions in all cases: read-out: Remaining enzyme activity
FRK = target: T1, FRK (Homo sapiens, UniProt P42685)
T1 construct: purchased Ambit (DiscoverX) KINOMEscan; Cerep
Experimental: (§1) The KINOMEscan was carried out by Ambit (San Diego, USA) according to a previously established protocol. The experiment was based on a competition binding assay that quantitatively measures the ability of a compound to compete with an immobilized, active-site directed ligand. The assay is performed by combining three components: DNA-tagged kinase; immobilized ligand; and a test compound. The ability of the test compound to compete with the immobilized ligand is measured via quantitative PCR of the DNA tag.
(§2) For most assays, kinase-tagged T7 phage strains were grown in parallel in 24-well blocks in an Escherichia coli host derived from the BL21 strain. E. coli were grown to log-phase and infected with T7 phage from a frozen stock and incubated with shaking at 32 °C until lysis (90–150 min). The lysates were centrifuged (6,000g) and filtered (0.2 μm) to remove cell debris. The remaining kinases were produced in HEK-293 cells (Sigma Aldrich, catalogue number: 85120602) and subsequently tagged with DNA for quantitative PCR detection. […] The liganded beads were blocked with excess biotin and washed with blocking buffer (SeaBlock (Pierce), 1% bovine serum albumin, 0.05% Tween 20 and 1 mM dithiothreitol) to remove unbound ligand and to reduce non-specific phage binding. […] SC81458 was prepared as 40x stock in 100% DMSO and directly diluted into the assay to a final concentration of 10 μM. All reactions were performed in polypropylene 384-well plates in a final volume of 0.04 ml. […] The kinase concentration in the eluates was measured by quantitative PCR.

STK35 = target: T2, STK35 (Homo sapiens, UniProt Q8TDR2)
T2 construct: purchased Ambit (DiscoverX) KINOMEscan; Cerep
Experimental: as §1, §2

SIK2 = target: T3, SIK2 (Homo sapiens, UniProt Q9H0K1)
T3 construct: purchased Ambit (DiscoverX) KINOMEscan; Cerep
Experimental: as §1, §2

TGFBR1 = target: T4, TGFBR1 (Homo sapiens, UniProt P36897)
T4 construct: purchased Ambit (DiscoverX) KINOMEscan; Cerep
Experimental: as §1, §2

EPHA7 = target: T5, EPHA7 (Homo sapiens, UniProt Q15375)
T5 construct: purchased Ambit (DiscoverX) KINOMEscan; Cerep
T5 sequence (Q15375 28-998): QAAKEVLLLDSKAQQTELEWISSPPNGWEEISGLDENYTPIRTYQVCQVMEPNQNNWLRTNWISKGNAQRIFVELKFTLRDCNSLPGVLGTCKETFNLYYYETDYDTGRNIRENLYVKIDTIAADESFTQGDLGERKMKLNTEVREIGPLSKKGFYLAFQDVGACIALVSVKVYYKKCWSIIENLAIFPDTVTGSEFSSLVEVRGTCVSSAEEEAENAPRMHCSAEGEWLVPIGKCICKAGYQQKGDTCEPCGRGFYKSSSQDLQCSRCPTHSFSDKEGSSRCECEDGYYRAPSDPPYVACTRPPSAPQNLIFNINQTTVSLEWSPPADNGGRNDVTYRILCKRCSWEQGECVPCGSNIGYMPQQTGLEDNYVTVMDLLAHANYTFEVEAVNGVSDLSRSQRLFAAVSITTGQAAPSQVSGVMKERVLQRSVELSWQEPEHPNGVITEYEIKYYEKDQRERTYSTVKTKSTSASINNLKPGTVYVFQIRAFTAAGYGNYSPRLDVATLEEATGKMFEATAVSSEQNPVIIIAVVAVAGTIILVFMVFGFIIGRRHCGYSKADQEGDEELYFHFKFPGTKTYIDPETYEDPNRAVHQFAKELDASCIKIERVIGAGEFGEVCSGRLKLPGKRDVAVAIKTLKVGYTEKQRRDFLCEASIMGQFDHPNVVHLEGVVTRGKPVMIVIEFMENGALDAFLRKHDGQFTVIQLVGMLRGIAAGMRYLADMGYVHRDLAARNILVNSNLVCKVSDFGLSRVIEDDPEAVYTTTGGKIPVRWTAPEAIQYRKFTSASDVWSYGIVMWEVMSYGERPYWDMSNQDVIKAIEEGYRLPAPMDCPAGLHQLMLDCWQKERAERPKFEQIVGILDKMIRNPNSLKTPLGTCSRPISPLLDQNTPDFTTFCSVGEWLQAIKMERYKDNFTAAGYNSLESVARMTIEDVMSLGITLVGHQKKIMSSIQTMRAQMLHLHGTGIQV
Experimental: as §1, §2

AURKB = target: T6, AURKB (Homo sapiens, UniProt Q96GD4)
T6 construct: purchased Ambit (DiscoverX) KINOMEscan; Cerep
Experimental: as §1, §2

CDC2L1 = target: T7, CDC2L1 (Homo sapiens, UniProt P21127)
T7 construct: purchased Ambit (DiscoverX) KINOMEscan; Cerep
Experimental: as §1, §2

PRKX = target: T8, PRKX (Homo sapiens, UniProt P51817)
T8 construct: purchased Ambit (DiscoverX) KINOMEscan; Cerep
T8 sequence (P51817 whole entry): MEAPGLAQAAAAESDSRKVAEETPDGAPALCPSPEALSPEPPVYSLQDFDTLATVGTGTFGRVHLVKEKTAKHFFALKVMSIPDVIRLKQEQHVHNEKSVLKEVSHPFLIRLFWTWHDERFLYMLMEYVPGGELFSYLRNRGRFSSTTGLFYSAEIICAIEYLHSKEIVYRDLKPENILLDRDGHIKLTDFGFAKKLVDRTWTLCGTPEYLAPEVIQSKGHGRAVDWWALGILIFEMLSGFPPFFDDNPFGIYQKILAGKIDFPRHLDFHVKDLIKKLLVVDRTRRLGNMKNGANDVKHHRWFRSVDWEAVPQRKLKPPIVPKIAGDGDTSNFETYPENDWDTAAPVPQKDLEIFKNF
Experimental: as §1, §2

AMPK-alpha1 = target: T9, AMPK-alpha1 (Homo sapiens, UniProt Q13131)
T9 construct: purchased Ambit (DiscoverX) KINOMEscan; Cerep
Experimental: as §1, §2

MERTK = target: T10, MERTK (Homo sapiens, UniProt Q12866)
T10 construct: purchased Ambit (DiscoverX) KINOMEscan; Cerep
Experimental: as §1, §2

EGFR(L747-T751del, Sins) = target: T11, EGFR(L747-T751del, Sins) (Homo sapiens, UniProt P00533, DEL747-750/T751S)
T11 construct: purchased Ambit (DiscoverX) KINOMEscan; Cerep
Experimental: as §1, §2

ERK4 = target: T12, ERK4 (Homo sapiens, UniProt P31152)
T12 construct: purchased Ambit (DiscoverX) KINOMEscan; Cerep
T12 sequence (P31152 whole entry): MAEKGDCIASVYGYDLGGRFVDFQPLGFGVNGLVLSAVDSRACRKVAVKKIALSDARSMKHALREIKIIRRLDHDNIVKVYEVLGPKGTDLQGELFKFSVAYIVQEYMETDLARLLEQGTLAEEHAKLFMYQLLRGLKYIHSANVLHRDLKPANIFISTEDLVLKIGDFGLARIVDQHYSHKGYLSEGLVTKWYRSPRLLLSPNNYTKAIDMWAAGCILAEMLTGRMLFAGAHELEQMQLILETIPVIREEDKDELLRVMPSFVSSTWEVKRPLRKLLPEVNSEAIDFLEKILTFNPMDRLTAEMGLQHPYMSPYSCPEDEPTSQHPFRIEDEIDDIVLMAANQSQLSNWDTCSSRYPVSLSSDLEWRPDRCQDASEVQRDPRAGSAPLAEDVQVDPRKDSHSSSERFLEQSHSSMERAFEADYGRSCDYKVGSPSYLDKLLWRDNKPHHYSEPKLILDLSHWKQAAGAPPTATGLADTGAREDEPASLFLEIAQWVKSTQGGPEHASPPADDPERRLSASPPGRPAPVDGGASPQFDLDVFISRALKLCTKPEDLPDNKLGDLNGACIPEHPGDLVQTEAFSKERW
Experimental: as §1, §2

MARK1 = target: T13, MARK1 (Homo sapiens, UniProt Q9P0L2)
T13 construct: purchased Ambit (DiscoverX) KINOMEscan; Cerep
Experimental: as §1, §2

FAK = target: T14, FAK (Homo sapiens, UniProt Q05397)
T14 construct: purchased Ambit (DiscoverX) KINOMEscan; Cerep
Experimental: as §1, §2

FYN = target: T15, FYN (Homo sapiens, UniProt P06241)
T15 construct: purchased Ambit (DiscoverX) KINOMEscan; Cerep
Experimental: as §1, §2

ABL1(H396P) = target: T16, ABL1(H396P) (Homo sapiens, UniProt P00519, H396P)
T16 construct: purchased Ambit (DiscoverX) KINOMEscan; Cerep
Experimental: as §1, §2

CDK5 = target: T17, CDK5 (Homo sapiens, UniProt Q00535)
T17 construct: purchased Ambit (DiscoverX) KINOMEscan; Cerep
Experimental: as §1, §2

ROCK2 = target: T18, ROCK2 (Homo sapiens, UniProt O75116)
T18 construct: purchased Ambit (DiscoverX) KINOMEscan; Cerep
Experimental: as §1, §2

TTK = target: T19, TTK (Homo sapiens, UniProt P33981)
T19 construct: purchased Ambit (DiscoverX) KINOMEscan; Cerep
Experimental: as §1, §2

ARK5 = target: T20, ARK5 (Homo sapiens, UniProt O60285)
T20 construct: purchased Ambit (DiscoverX) KINOMEscan; Cerep
Experimental: as §1, §2

RRET(V804L) = target: T21, RRET(V804L) (Homo sapiens, UniProt P07949, V804L)
T21 construct: purchased Ambit (DiscoverX) KINOMEscan; Cerep
Experimental: as §1, §2

MAP4K2 = target: T22, MAP4K2 (Homo sapiens, UniProt Q12851)
T22 construct: purchased Ambit (DiscoverX) KINOMEscan; Cerep
Experimental: as §1, §2

EGFR(L861Q) = target: T23, EGFR(L861Q) (Homo sapiens, UniProt P00533, L861Q)
T23 construct: purchased Ambit (DiscoverX) KINOMEscan; Cerep
Experimental: as §1, §2

PDGFRb = target: T24, PDGFRb (Homo sapiens, UniProt P09619)
T24 construct: purchased Ambit (DiscoverX) KINOMEscan; Cerep
T24 sequence (P09619 33-1106): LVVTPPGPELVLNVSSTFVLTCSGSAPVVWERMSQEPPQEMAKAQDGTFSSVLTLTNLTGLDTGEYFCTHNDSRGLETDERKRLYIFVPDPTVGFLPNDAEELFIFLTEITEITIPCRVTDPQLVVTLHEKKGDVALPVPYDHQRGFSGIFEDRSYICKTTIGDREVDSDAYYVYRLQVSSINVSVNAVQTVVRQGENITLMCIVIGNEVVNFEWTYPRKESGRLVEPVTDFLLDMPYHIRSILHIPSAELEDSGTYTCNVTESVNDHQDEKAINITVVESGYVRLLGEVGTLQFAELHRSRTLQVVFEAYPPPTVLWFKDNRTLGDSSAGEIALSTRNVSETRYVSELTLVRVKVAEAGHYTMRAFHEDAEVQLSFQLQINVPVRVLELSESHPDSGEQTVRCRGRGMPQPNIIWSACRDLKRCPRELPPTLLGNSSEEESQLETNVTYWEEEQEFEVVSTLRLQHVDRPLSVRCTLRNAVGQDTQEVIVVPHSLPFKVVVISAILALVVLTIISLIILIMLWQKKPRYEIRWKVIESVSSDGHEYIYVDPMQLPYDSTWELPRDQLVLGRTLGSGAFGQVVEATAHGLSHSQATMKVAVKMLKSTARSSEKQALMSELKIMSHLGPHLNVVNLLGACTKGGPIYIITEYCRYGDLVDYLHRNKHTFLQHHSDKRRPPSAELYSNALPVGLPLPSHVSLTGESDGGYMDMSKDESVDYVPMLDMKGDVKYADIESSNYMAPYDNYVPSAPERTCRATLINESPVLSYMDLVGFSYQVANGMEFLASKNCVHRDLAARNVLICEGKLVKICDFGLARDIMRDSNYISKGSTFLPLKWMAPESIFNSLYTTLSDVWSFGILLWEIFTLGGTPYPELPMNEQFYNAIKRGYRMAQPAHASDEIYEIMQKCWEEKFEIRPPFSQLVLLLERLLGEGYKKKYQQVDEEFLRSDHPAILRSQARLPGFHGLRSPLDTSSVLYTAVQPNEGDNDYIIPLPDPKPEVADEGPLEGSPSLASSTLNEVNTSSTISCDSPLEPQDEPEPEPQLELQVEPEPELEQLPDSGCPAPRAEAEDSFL
Experimental: as §1, §2

INSRR = target: T25, INSRR (Homo sapiens, UniProt P14616)
T25 construct: purchased Ambit (DiscoverX) KINOMEscan; Cerep
T25 sequence (P14616 27-1297): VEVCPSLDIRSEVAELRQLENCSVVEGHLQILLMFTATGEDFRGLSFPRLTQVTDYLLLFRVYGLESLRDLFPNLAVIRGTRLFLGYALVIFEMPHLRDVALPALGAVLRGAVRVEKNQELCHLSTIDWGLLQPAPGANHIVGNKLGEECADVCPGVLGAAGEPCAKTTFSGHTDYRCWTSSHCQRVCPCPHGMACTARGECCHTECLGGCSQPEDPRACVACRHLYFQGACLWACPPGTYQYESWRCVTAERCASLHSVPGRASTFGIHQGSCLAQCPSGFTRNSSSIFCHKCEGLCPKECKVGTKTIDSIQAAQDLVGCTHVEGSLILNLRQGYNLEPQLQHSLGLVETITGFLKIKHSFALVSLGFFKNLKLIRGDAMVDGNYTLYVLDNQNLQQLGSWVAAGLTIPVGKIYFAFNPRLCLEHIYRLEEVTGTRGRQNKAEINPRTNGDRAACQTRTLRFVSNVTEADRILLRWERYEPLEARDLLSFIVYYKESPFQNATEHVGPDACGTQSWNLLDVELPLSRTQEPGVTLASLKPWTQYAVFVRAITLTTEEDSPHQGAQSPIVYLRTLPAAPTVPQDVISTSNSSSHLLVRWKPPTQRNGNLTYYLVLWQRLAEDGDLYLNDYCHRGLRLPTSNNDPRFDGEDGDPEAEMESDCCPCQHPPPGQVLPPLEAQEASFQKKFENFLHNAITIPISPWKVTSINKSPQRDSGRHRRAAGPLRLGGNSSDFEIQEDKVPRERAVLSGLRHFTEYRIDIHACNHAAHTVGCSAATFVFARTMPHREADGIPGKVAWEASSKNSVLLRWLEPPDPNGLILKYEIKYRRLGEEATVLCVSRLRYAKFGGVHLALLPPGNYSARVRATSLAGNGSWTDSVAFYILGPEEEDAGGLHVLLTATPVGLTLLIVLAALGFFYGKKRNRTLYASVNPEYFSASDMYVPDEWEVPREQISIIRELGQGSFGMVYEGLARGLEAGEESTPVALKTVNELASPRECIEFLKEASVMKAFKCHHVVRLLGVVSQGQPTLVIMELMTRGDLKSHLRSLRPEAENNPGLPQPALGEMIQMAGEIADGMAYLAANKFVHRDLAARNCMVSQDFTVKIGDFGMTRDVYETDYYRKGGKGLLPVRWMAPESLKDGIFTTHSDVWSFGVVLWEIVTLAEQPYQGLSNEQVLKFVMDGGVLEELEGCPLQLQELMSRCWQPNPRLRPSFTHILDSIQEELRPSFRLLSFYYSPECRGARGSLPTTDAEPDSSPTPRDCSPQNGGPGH
Experimental: as §1, §2

QSK = target: T26, QSK (Homo sapiens, UniProt Q9Y2K2)
T26 construct: purchased Ambit (DiscoverX) KINOMEscan; Cerep
Experimental: as §1, §2

RIPK4 = target: T27, RIPK4 (Homo sapiens, UniProt P57078)
T27 construct: purchased Ambit (DiscoverX) KINOMEscan; Cerep
Experimental: as §1, §2

ABL2 = target: T28, ABL2 (Homo sapiens, UniProt P42684)
T28 construct: purchased Ambit (DiscoverX) KINOMEscan; Cerep
Experimental: as §1, §2

[1] = target: T29, RPS6KA2(Kin.Dom.2-C-term) (Homo sapiens, UniProt Q15349)
T29 construct: RPS6KA2(Kin.Dom.2-C-term); purchased Ambit (DiscoverX) KINOMEscan; Cerep
Experimental: as §1, §2

ABL1(E255K) = target: T30, ABL1(E255K) (Homo sapiens, UniProt P00519, E255K)
T30 construct: purchased Ambit (DiscoverX) KINOMEscan; Cerep
Experimental: as §1, §2

RET(M918T) = target: T31, RET(M918T) (Homo sapiens, UniProt P07949, M918T)
T31 construct: purchased Ambit (DiscoverX) KINOMEscan; Cerep
Experimental: as §1, §2

MLCK = target: T32, MLCK (Homo sapiens, UniProt Q32MK0)
T32 construct: purchased Ambit (DiscoverX) KINOMEscan; Cerep
T32 sequence (Q32MK0 whole entry): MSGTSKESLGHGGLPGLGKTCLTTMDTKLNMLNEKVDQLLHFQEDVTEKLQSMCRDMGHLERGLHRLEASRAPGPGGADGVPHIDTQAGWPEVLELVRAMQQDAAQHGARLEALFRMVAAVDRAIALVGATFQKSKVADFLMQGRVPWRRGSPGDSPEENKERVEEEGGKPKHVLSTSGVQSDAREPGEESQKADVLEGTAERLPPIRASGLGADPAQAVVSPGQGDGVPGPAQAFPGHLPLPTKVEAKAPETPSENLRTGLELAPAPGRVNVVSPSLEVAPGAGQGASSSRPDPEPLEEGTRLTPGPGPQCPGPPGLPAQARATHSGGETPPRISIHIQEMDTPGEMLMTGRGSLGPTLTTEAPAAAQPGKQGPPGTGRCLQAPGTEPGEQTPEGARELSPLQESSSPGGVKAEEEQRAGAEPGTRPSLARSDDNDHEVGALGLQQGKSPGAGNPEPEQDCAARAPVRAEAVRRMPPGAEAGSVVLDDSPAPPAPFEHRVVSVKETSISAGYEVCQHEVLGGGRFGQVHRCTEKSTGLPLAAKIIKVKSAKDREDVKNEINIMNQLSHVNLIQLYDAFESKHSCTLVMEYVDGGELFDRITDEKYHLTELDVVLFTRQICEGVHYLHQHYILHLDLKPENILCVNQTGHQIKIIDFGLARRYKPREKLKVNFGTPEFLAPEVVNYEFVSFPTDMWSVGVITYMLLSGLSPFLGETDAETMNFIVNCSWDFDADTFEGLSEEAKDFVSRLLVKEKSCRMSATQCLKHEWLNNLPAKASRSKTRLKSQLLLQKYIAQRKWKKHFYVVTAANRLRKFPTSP
Experimental: as §1, §2

FGFR3(G697C) = target: T33, FGFR3(G697C) (Homo sapiens, UniProt P22607, G697C)
T33 construct: purchased Ambit (DiscoverX) KINOMEscan; Cerep
Experimental: as §1, §2

Structure (SMILES): CCCCN1CCN(C(=N)c2cccc(NC(=O)Nc3ccc(S(=O)(=O)NCc4ccc(S(N)(=O)=O)cc4)cc3)c2)CC1 [SC81458, 4-(3-(3-((4-butylpiperazin-1-yl)(imino)methyl)phenyl)ureido)-N-(4-sulfamoylbenzyl) benzenesulfonamide]
- remaining binding at 10 µM (FRK): 100%
- remaining binding at 10 µM (STK35): 87%
- remaining binding at 10 µM (SIK2): 100%
- remaining binding at 10 µM (TGFBR1): 100%
- remaining binding at 10 µM (EPHA7): 81%
- remaining binding at 10 µM (AURKB): 78%
- remaining binding at 10 µM (CDC2L1): 100%
- remaining binding at 10 µM (PRKX): 72%
- remaining binding at 10 µM (AMPK-alpha1): 100%
- remaining binding at 10 µM (MERTK): 100%
- remaining binding at 10 µM (EGFR(L747-T751del, Sins)): 69%
- remaining binding at 10 µM (ERK4): 100%
- remaining binding at 10 µM (MARK1): 100%
- remaining binding at 10 µM (FAK): 100%
- remaining binding at 10 µM (FYN): 100%
- remaining binding at 10 µM (ABL1(H396P)): 100%
- remaining binding at 10 µM (CDK5): 100%
- remaining binding at 10 µM (ROCK2): 76%
- remaining binding at 10 µM (TTK): 91%
- remaining binding at 10 µM (ARK5): 92%
- remaining binding at 10 µM (RRET(V804L)): 100%
- remaining binding at 10 µM (MAP4K2): 100%
- remaining binding at 10 µM (EGFR(L861Q)): 91%
- remaining binding at 10 µM (PDGFRb): 61%
- remaining binding at 10 µM (INSRR): 95%
- remaining binding at 10 µM (QSK): 100%
- remaining binding at 10 µM (RIPK4): 74%
- remaining binding at 10 µM (ABL2): 77%
- remaining binding at 10 µM [1]: 100%
- remaining binding at 10 µM (ABL1(E255K)): 100%
- remaining binding at 10 µM (RET(M918T)): 100%
- remaining binding at 10 µM (MLCK): 100%
- remaining binding at 10 µM (FGFR3(G697C)): 100%

— publication PMC5290327, “SC83288 is a clinical development candidate for the treatment of severe malaria” (Nature Communications, 2017)
